From US6288091A, “Antiherpes virus compounds and methods for their preparation and use” (Boehringer Ingelheim Ltd., priority 1999, dated 2001)
Where two headings read alike, the source gives them in different places.

Assays:
[1] = target: T1, HSV-1 helicase-primase (Human herpesvirus 1, UniProt P10189+P10236); assay: HSV-1 DNA-dependent ATPase assay (inhibition of HSV-1 helicase-primase); format: biochemical
T1 construct: made in house; host or cells: Sf21 insect cells triply infected with recombinant baculoviruses (UL5, UL8, UL52)
T1 sequence (P10192 whole entry): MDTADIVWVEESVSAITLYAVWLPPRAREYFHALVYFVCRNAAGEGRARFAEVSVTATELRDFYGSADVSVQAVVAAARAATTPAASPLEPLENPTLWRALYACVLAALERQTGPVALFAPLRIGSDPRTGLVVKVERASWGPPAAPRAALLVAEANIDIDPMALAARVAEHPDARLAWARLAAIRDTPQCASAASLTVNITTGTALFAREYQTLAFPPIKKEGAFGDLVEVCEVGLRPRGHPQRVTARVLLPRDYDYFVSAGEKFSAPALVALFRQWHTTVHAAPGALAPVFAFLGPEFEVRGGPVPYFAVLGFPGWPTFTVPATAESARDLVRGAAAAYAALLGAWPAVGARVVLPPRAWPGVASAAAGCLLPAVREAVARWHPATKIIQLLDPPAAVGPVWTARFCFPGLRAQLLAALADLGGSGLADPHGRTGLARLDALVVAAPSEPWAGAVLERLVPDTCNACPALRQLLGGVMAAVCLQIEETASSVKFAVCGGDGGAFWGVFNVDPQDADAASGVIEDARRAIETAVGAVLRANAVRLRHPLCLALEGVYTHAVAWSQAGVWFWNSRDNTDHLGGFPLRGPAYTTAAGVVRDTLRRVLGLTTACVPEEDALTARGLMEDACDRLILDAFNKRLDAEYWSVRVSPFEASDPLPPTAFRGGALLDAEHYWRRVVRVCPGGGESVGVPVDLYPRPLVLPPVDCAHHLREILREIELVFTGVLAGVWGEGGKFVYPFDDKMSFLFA
T1 sequence (P10236 whole entry): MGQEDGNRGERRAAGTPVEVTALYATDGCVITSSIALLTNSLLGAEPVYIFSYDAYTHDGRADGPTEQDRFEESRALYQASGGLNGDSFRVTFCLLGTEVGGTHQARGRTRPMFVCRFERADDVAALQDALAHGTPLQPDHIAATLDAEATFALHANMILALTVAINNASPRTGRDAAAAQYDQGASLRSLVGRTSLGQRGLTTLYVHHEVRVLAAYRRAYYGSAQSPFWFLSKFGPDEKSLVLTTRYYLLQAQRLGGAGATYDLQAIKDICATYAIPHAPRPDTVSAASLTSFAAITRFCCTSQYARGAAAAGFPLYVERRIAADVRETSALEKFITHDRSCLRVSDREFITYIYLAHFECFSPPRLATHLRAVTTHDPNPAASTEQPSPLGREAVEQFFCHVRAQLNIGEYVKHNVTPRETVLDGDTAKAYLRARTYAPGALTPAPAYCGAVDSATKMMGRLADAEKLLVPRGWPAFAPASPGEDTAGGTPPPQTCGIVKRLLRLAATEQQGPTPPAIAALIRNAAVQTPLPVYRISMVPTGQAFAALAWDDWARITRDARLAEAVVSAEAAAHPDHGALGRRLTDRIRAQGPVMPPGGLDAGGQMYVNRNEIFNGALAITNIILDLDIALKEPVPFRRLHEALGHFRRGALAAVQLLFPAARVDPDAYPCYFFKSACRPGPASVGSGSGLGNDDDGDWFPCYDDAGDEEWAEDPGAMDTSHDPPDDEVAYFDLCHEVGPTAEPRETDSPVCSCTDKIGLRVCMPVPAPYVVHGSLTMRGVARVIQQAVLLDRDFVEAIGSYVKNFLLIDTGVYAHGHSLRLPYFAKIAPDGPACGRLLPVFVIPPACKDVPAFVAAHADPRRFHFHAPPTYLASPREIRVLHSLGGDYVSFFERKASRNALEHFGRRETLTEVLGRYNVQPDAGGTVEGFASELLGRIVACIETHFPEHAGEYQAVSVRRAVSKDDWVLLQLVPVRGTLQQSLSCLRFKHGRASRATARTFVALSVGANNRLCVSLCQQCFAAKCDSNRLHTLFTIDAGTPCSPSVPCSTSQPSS
T1 sequence (P10189 whole entry): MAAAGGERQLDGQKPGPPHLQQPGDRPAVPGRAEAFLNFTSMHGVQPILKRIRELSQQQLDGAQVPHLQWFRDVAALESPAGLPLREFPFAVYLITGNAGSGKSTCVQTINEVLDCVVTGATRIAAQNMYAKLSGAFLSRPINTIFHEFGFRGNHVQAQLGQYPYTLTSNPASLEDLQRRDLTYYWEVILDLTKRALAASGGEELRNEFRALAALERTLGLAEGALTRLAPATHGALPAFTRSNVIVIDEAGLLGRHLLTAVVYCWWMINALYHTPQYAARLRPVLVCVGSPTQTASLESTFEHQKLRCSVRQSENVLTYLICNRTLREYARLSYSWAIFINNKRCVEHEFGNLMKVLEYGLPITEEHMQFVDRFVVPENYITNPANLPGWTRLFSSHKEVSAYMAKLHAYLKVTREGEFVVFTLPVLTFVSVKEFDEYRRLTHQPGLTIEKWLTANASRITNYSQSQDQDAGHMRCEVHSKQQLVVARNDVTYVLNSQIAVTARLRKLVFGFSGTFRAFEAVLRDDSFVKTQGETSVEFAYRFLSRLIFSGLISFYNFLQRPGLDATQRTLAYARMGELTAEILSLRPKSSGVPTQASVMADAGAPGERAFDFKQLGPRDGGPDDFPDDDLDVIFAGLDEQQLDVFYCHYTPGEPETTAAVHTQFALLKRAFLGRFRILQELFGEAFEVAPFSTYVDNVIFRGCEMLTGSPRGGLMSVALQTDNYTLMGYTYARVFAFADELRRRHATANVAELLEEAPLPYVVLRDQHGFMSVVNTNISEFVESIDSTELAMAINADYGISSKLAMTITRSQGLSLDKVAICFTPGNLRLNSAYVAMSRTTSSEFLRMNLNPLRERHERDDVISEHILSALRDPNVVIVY
Method in brief: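 Holoenzyme (UL5/UL8/UL52) expressed in baculovirus-infected Sf21 cells and purified, used at 3 μg/mL with 4 mM ATP and 25 μM primed M13 ssDNA in HEPES pH 7.5, 5.5 mM MgCl2, 3.3% DMSO. Incubated 20 min at 34°. Released phosphate read by malachite green at 650 nm, and activity taken from net absorbance with versus without inhibitor.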

[2] = system: HCMV (strain AD169); assay: Inhibition of HCMV replication, plaque reduction assay (PRA, Hs-68 cells); format: cell-based, Human Cytomegalovirus (HCMV); details: read-out: PRA CMV EC50
Method in brief: (§1)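 Hs-68 monolayers (80–90% confluent) were infected with ~50 PFU HCMV AD169 for 2 h at 37°, then given compound in DMEM/5% inactivated FBS, refreshed after 4 days and kept 4 more days. Plaques were counted after formaldehyde fixation and crystal violet staining. EC50 derives from percent plaque reduction versus untreated wells.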

[3] = as above; format: cell-based, Human Cytomegalovirus (HCMV); details: human, Group 1 Table 5 entries, read-out: Cytotoxic at this concentration (footnote *, PRA CMV)
Method in brief: as §1

[4] = Human betaherpesvirus 5, AD169, Hs68, Group 2 Table 1 entries
[5] = Human betaherpesvirus 5, AD169, Hs68, Group 1 Table 6 entries
[6] = Human betaherpesvirus 5, AD169, Hs68, Group 1 Table 5 entries

Row | SMILES | IC50 ([1]; Group 2 Table 1 entries) [µM] | EC50 [2, 4] [µM] | IC50 ([1]; Group 1 Table 6 entries) [µM] | EC50 [2, 5] [µM] | further results
1 | CN(CCc1ccccn1)C(=O)Nc1ccc(-c2csc(NC(=O)OC(C)(C)C)n2)cc1 [Example 14] | > 100 | 2 |  |  | 
2 | CC(C)(C)OC(=O)N1CCC[C@@H]1C(=O)Nc1ccc(-c2csc(N)n2)cc1 [Example 8] |  |  | 7.5 | > 83 | 
3 | CCCCN(CCCC)C(=O)C(=O)Nc1ccc(-c2csc(N)n2)cc1 [Example 1, N-{4-(2-Amino-4-thiazolyl)phenyl}-N',N'-dibutylethanediamide] |  |  |  |  | IC50 ([1]; Group 2 Table 2 entries (A = C(O))): 7 µM; EC50 ([2]; Human betaherpesvirus 5, AD169, Hs68, Group 2 Table 2 entries): > 4 µM
4 | CC(C)(C)NC(=O)Nc1ccc(-c2csc(N)n2)cc1 [Example 12] | 20 | > 32 |  |  | 
5 | CN(CCc1ccccn1)C(=O)Nc1ccc(-c2csc(N)n2)cc1 [Example 4] | 3.7 | > 144 |  |  | 
6 | CN(C(=O)OC(C)(C)C)[C@@H](Cc1ccccc1)C(=O)Nc1ccc(-c2csc(N)n2)cc1 [Example 10] |  |  |  |  | IC50 ([1]; Group 1 Table 5 entries): 0.09 µM; EC50 [2, 6]: 12 µM
7 | Nc1nc(-c2ccc(NC(=O)[C@@H]3CCCN3C(=O)C3CCCCC3)cc2)cs1 [Example 6] |  |  | 0.052 | 22 | 
8 | Nc1nc(-c2ccc(NC(=O)[C@H]3CCCN3C(=O)C3CCCCC3)cc2)cs1 [Example 10] |  |  | 0.13 | 48 | 
9 | CCCCN(CCCC)C(=O)Nc1ccc(-c2csc(NC(=O)OC(C)(C)C)n2)cc1 [Example 15] | > 100 | 1.1 |  |  | 
10 | Nc1nc(-c2ccc(NC(=O)[C@@H]3CCC(=O)N3Cc3ccccc3)cc2)cs1 [Example 2] |  |  | 6.2 | 50 | 
11 | Nc1nc(-c2ccc(NC(=O)[C@H]3CCC(=O)N3CC3CCCCC3)cc2)cs1 [Example 3] |  |  | 6.2 | 45 | 
12 | CCCC(CCC)NC(=O)Nc1ccc(-c2csc(N)n2)cc1 [Example 11] | 17 | 13 |  |  | 
13 | CCCCN(CCCC)C(=O)Nc1ccc(-c2csc(N)n2)cc1 [Example 1, N-{4-(2-Amino-4-thiazolyl)phenyl}-N,N-dibutylurea] | 4.2 | 37 |  |  | 
14 | Nc1nc(-c2ccc(NC(=O)[C@@H]3CCCN3C(=O)c3ccccc3)cc2)cs1 [Example 5] |  |  | 1.6 | > 89 | 
15 | Nc1nc(-c2ccc(NC(=O)[C@H](Cc3ccccc3)N(Cc3ccccc3)C(=O)C3CCCCC3)cc2)cs1 [Example 11] |  |  |  |  | IC50 ([1]; Group 1 Table 5 entries): 0.4 µM; EC50 [2, 6]: 8 µM
16 | CC(C)(C)CC(=O)N[C@@H](Cc1ccccc1)C(=O)Nc1ccc(-c2csc(N)n2)cc1 [Example 19] |  |  |  |  | IC50 ([1]; Group 1 Table 5 entries): 0.051 µM; MCC at 192 h [3]: 21 µM; EC50 [2, 6]: 21 µM
17 | Nc1nc(-c2ccc(NC(=O)[C@H](Cc3ccccc3)NS(=O)(=O)N3CCOCC3)cc2)cs1 [Example 25] |  |  |  |  | IC50 ([1]; Group 1 Table 5 entries): 0.17 µM; EC50 [2, 6]: 55 µM
18 | Nc1nc(-c2ccc(NC(=O)[C@H]3CCCN3C(=O)c3ccccc3)cc2)cs1 [Example 9] |  |  | 1.6 | > 88 | 
